According to PubChem BioAssay AID248 (DTP/NCI, 2004):
Values joined by “and” are separate entries in the source; they are usually repeats but may differ in a detail not shown here. Equal values may be shown once. Inconclusive results and toxic doses are left out. Rule as the data show it: active = T/C of 150% or more; inactive = T/C below 125%.

Test system: L1210 leukemia ip in BDF1 mice, survival T/C
Experiment: NCI In Vivo Anticancer Drug Screen. Data for tumor model L1210 Leukemia (intraperitoneal) in B6D2F1 (BDF1) mice
Conditions: endpoint: mean survival time, higher = longer survival
Outline: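 Each compound was tested against a transplantable tumor grown in mice. The endpoint was survival, with treated animals benchmarked against vehicle controls as a simple ratio.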

[1] = dose: 25.0 mg/kg/injection, schedule: Q01DX009 (ip), vehicle: Klucel (hydroxypropylcellulose) (HPC)
[2] = dose: 50.0 mg/kg/injection, schedule: Q01DX009 (ip), vehicle: Klucel (hydroxypropylcellulose) (HPC)
[3] = dose: 100.0 mg/kg/injection, schedule: Q01DX009 (ip), vehicle: Klucel (hydroxypropylcellulose) (HPC)
[4] = dose: 100.0 mg/kg/injection, schedule: Q04DX003 (ip), vehicle: Klucel (hydroxypropylcellulose) (HPC)
[5] = dose: 200.0 mg/kg/injection, schedule: Q04DX003 (ip), vehicle: Klucel (hydroxypropylcellulose) (HPC)
[6] = dose: 400.0 mg/kg/injection, schedule: Q04DX003 (ip), vehicle: Klucel (hydroxypropylcellulose) (HPC)
[7] = dose: 100.0 mg/kg/injection, schedule: Q04DX003 (ip), vehicle: saline with Tween-80
[8] = dose: 200.0 mg/kg/injection, schedule: Q04DX003 (ip), vehicle: saline with Tween-80
[9] = dose: 400.0 mg/kg/injection, schedule: Q04DX002 (ip), vehicle: saline with Tween-80
[10] = dose: 400.0 mg/kg/injection, schedule: Q04DX003 (ip), vehicle: saline with Tween-80
[11] = dose: 200.0 mg/kg/injection, schedule: Q01DX001 (ip), vehicle: saline
[12] = dose: 100.0 mg/kg/injection, schedule: Q01DX009 (ip), vehicle: saline with Tween-80
[13] = dose: 200.0 mg/kg/injection, schedule: Q01DX009 (ip), vehicle: saline with Tween-80
[14] = dose: 400.0 mg/kg/injection, schedule: Q01DX009 (ip), vehicle: saline with Tween-80
[15] = dose: 200.0 mg/kg/injection, schedule: Q01DX009 (ip), vehicle: Klucel (hydroxypropylcellulose) (HPC)
[16] = dose: 400.0 mg/kg/injection, schedule: Q01DX009 (ip), vehicle: Klucel (hydroxypropylcellulose) (HPC)
[17] = dose: 100.0 mg/kg/injection, schedule: Q04DX003 (ip), vehicle: saline
[18] = dose: 200.0 mg/kg/injection, schedule: Q04DX003 (ip), vehicle: saline
[19] = dose: 400.0 mg/kg/injection, schedule: Q04DX003 (ip), vehicle: saline

Measured: T/C

Cc1cccc(SC(=O)Nc2ccccc2C(F)(F)F)c1
inactive: [1] 103 % of control | [2] 94 % of control | [3] 97 % of control and 102 % of control | [4] 98 % of control | [5] 109 % of control | [6] 93 % of control

Br[SiH](Br)Br
inactive: dose: 25.6 mg/kg/injection, schedule: Q04DX002 (ip), vehicle: saline with Tween-80 93 % of control | dose: 64.0 mg/kg/injection, schedule: Q04DX002 (ip), vehicle: saline with Tween-80 93 % of control | [7] 101 % of control | dose: 160.0 mg/kg/injection, schedule: Q04DX002 (ip), vehicle: saline with Tween-80 90 % of control | [8] 92 % of control | [9] 97 % of control | [10] 92 % of control

COC1OCC(NC(C)=O)C(OC(C)=O)C1OC(C)=O (configuration not stated)
inactive: dose: 50.0 mg/kg/injection, schedule: Q01DX001 (sc), vehicle: saline 104 % of control | dose: 100.0 mg/kg/injection, schedule: Q01DX001 (sc), vehicle: saline 101 % of control | dose: 200.0 mg/kg/injection, schedule: Q01DX001 (sc), vehicle: saline 111 % of control | dose: 400.0 mg/kg/injection, schedule: Q01DX001 (sc), vehicle: saline 95 % of control

CN(CCO)C(c1ccccc1)c1ccccc1
inactive: dose: 100.0 mg/kg/injection, schedule: Q01DX001 (ip), vehicle: saline 100 % of control | [11] 94 % of control | dose: 400.0 mg/kg/injection, schedule: Q01DX001 (ip), vehicle: saline 103 % of control

NS(=O)(=O)c1ccc(NC(=S)NC(=O)c2cccc([N+](=O)[O-])c2)cc1
inactive: dose: 50.0 mg/kg/injection, schedule: Q04DX003 (ip), vehicle: saline with Tween-80 97 % of control | dose: 100.0 mg/kg/injection, schedule: Q01DX001 (ip), vehicle: saline with Tween-80 96 % of control | [12] 96 % of control and 101 % of control | dose: 100.0 mg/kg/injection, schedule: Q04DX002 (ip), vehicle: saline with Tween-80 90 % of control | [7] 97 % of control and 105 % of control | dose: 200.0 mg/kg/injection, schedule: Q01DX001 (ip), vehicle: saline with Tween-80 101 % of control | [13] 103 % of control and 89 % of control | dose: 200.0 mg/kg/injection, schedule: Q04DX002 (ip), vehicle: saline with Tween-80 104 % of control | [8] 94 % of control | dose: 400.0 mg/kg/injection, schedule: Q01DX001 (ip), vehicle: saline with Tween-80 86 % of control | [14] 96 % of control and 89 % of control | [9] 87 % of control | [10] 89 % of control

COc1ccccc1OCC(O)COC(N)=O (configuration not stated)
inactive: [1] 100 % of control | [2] 103 % of control | [3] 106 % of control | [15] 103 % of control | [16] 106 % of control

Cc1ccc(NC(=S)N(C)C)cc1Cl
inactive: [3] 97 % of control | [4] 104 % of control | [15] 101 % of control | [5] 97 % of control | [16] 100 % of control | [6] 104 % of control

C=CCN(c1ccccc1)P(=O)(N1CC1)N1CC1
inactive: dose: 100.0 mg/kg/injection, schedule: Q01DX001 (ip), vehicle: carboxymethylcellulose (CMC) 96 % of control | dose: 200.0 mg/kg/injection, schedule: Q01DX001 (ip), vehicle: carboxymethylcellulose (CMC) 96 % of control | dose: 400.0 mg/kg/injection, schedule: Q01DX001 (ip), vehicle: carboxymethylcellulose (CMC) 96 % of control

NC(=O)N/N=C(/CCC(=O)O)C(=O)O
inactive: dose: 100.0 mg/kg/injection, schedule: Q01DX001 (ip), vehicle: acetone 98 % of control | dose: 100.0 mg/kg/injection, schedule: Q01DX009 (ip), vehicle: acetone 92 % of control | [17] 89 % of control | dose: 200.0 mg/kg/injection, schedule: Q01DX001 (ip), vehicle: acetone 103 % of control | dose: 200.0 mg/kg/injection, schedule: Q01DX009 (ip), vehicle: acetone 100 % of control | [18] 93 % of control and 87 % of control | dose: 400.0 mg/kg/injection, schedule: Q01DX001 (ip), vehicle: acetone 95 % of control | dose: 400.0 mg/kg/injection, schedule: Q01DX009 (ip), vehicle: acetone 94 % of control | [19] 91 % of control

CCN(c1ccccc1)c1ccc([N+](=O)[O-])c2no[n+]([O-])c12
inactive: dose: 20.0 mg/kg/injection, schedule: Q04DX003 (ip), vehicle: saline with Tween-80 100 % of control | dose: 40.0 mg/kg/injection, schedule: Q04DX003 (ip), vehicle: saline with Tween-80 96 % of control

OC(CBr)c1ccc(Cl)c(Cl)c1 (configuration not stated)
inactive: [3] 103 % of control | [4] 97 % of control | [15] 105 % of control | [5] 103 % of control | [16] 97 % of control | [6] 103 % of control

Cc1noc2c1ncc[n+]2[O-]
inactive: dose: 5.0 mg/kg/injection, schedule: Q01DX009 (ip), vehicle: saline with Tween-80 89 % of control | dose: 10.0 mg/kg/injection, schedule: Q01DX009 (ip), vehicle: saline with Tween-80 91 % of control | dose: 20.0 mg/kg/injection, schedule: Q01DX009 (ip), vehicle: saline with Tween-80 86 % of control

COc1ccc(OCCCO)cc1
inactive: dose: 100.0 mg/kg/injection, schedule: Q04DX002 (ip), vehicle: Klucel (hydroxypropylcellulose) (HPC) 108 % of control | dose: 200.0 mg/kg/injection, schedule: Q04DX002 (ip), vehicle: Klucel (hydroxypropylcellulose) (HPC) 105 % of control | dose: 400.0 mg/kg/injection, schedule: Q04DX002 (ip), vehicle: Klucel (hydroxypropylcellulose) (HPC) 97 % of control

C/C=C/C(=O)Nc1cccc(O)c1
inactive: [12] 93 % of control | [13] 91 % of control | [14] 93 % of control

CCCCC(OC(C)=O)C(OC(C)=O)C(COC(C)=O)NC(C)=O (configuration not stated)
inactive: dose: 100.0 mg/kg/injection, schedule: Q04DX002 (ip), vehicle: other 103 % of control | dose: 200.0 mg/kg/injection, schedule: Q04DX002 (ip), vehicle: other 97 % of control | dose: 400.0 mg/kg/injection, schedule: Q04DX002 (ip), vehicle: other 110 % of control

COc1ccc(-n2cnc3c(=O)[nH]c(N)nc32)cc1
inactive: [11] 92 % of control

CC(C)(C)CC(C)(C)c1ccc(OCCOc2ccc(C(=O)Nc3ccc(NC(=O)c4ccc5ccccc5c4O)cc3)cc2)cc1
inactive: [7] 105 % of control | [8] 90 % of control | [10] 90 % of control

CC1=CC(C)(C(Cl)(Cl)Cl)C=C/C1=N\OC(C)C(=O)O (configuration not stated)
inactive: dose: 75.0 mg/kg/injection, schedule: Q01DX001 (ip), vehicle: carboxymethylcellulose (CMC) 95 % of control | [17] 106 % of control | dose: 150.0 mg/kg/injection, schedule: Q01DX001 (ip), vehicle: carboxymethylcellulose (CMC) 106 % of control | [18] 95 % of control | [19] 97 % of control

Cc1ccc(Cl)cc1NS(=O)(=O)c1ccc(Br)cc1
inactive: [12] 95 % of control | [7] 88 % of control | [13] 90 % of control | [8] 94 % of control | [14] 90 % of control | [10] 94 % of control

CC(C)(C)C1COP(=O)(OCc2ccccc2)OC1 (configuration not stated)
inactive: dose: 100.0 mg/kg/injection, schedule: Q04DX003 (ip), vehicle: other 92 % of control | dose: 200.0 mg/kg/injection, schedule: Q04DX003 (ip), vehicle: other 91 % of control

S=c1cc(-c2cccs2)ss1
inactive: dose: 50.0 mg/kg/injection, schedule: Q01DX009 (ip), vehicle: saline 107 % of control | dose: 100.0 mg/kg/injection, schedule: Q01DX009 (ip), vehicle: saline 96 % of control and 91 % of control | [17] 93 % of control | dose: 200.0 mg/kg/injection, schedule: Q01DX009 (ip), vehicle: saline 93 % of control and 91 % of control | [18] 105 % of control | dose: 300.0 mg/kg/injection, schedule: Q01DX009 (ip), vehicle: saline 95 % of control | dose: 400.0 mg/kg/injection, schedule: Q01DX009 (ip), vehicle: saline 98 % of control | [19] 88 % of control

CCOC(=O)c1ccc(NC(=S)N2CCOCC2)cc1
inactive: [3] 93 % of control | [15] 101 % of control | [16] 93 % of control

COC(=O)CCC(=O)N1CCOCC1
inactive: [7] 88 % of control | [8] 90 % of control | [10] 88 % of control
